Assay results as given in patent US20230117034A1, “PYRAZOLOTRIAZINES” (Bayer Aktiengesellschaft, priority 2019, published 2023).

Key:
CDK9/CycT1 = target: T1, CDK9/CycT1 (Homo sapiens, UniProt P50750); assay: CDK9/CycT1 high ATP kinase assay (TR-FRET, 2 mM ATP); assay type: biochemical; conditions: 2 mM ATP (high ATP); median; read-out: CDK9/CyclinT1, 2 mM ATP (high ATP), IC50 (median)
T1 construct: Recombinant full-length His-tagged human CDK9 and CycT1; purchased Life Technologies PV4131; host or cells: insect cells
Procedure: CDK9/CycT1-inhibitory activity of compounds of the present invention at a high ATP concentration after preincubation of enzyme and test compounds was quantified employing the CDK9/CycT1 TR-FRET assay as described in the following paragraphs.
Recombinant full-length His-tagged human CDK9 and CycT1, expressed in insect cells and purified by Ni-NTA affinity chromatography, were purchased from Life Technologies (Cat. No PV4131). As substrate for the kinase reaction biotinylated peptide biotin-Ttds-[…] (C-terminus in amide form) was used which can be purchased e.g. form the company JERINI peptide technologies (Berlin, Germany).
For the assay 50 nanoL of a 100 fold concentrated solution of the test compound in DMSO was pipetted into either a black low volume 384 well microtiter plate or a black 1536 well microtiter plate (both Greiner Bio-One, Frickenhausen, Germany), 2 microL of a solution of CDK9/CycT1 in aqueous assay buffer [50 millimol/L Tris/HCl pH 8.0, 10 millimol/L MgCl2, 1.0 millimol/L dithiothreitol, 0.1 millimol/L sodium ortho-vanadate, 0.01% (v/v) Nonidet-P40 (Sigma)] were added and the mixture was incubated for 15 min at 22° C. to allow pre-binding of the test compounds to the enzyme before the start of the kinase reaction. […] The concentration of CDK9/CycT1 was adjusted depending of the activity of the enzyme lot and was chosen appropriate to have the assay in the linear range, typical concentrations were in the range of 0.5 microg/ml.
The resulting mixture was incubated 1 h at 22° C. to allow the formation of complex between the phosphorylated biotinylated peptide and the detection reagents. Subsequently the amount of phosphorylated substrate was evaluated by measurement of the resonance energy transfer from the Eu-chelate to the streptavidine-XL. Therefore, the fluorescence emissions at 620 nm and 665 nm after excitation at 350 nm was measured in a TR-FRET reader, e.g. a Pherastar (BMG Labtechnologies, Offenburg, Germany) or a Viewlux (Perkin-Elmer). The ratio of the emissions at 665 nm and at […] was taken as the measure for the amount of phosphorylated substrate.

[1] = test system: CAL-120, human breast adenocarcinoma cells; assay: Proliferation assay CAL-120 (crystal violet, 4 days); assay type: cell-based; conditions: Homo sapiens, CAL-120, 96 h, CAL-120 cells, median, read-out: Prolif-CAL-120, IC50-[mol/l] (median)
Procedure: Human tumour cells were originally obtained from the American Type Culture Collection (ATCC), or from the Deutsche Sammlung von Mikroorganismen und Zellkulturen (DSMZ, German Collection of Microorganisms and Cell Cultures). Cultivated tumour cells (CAL-120, human breast adenocarcinoma cells, DSMZ ACC-459; MDA-MB-231, human breast cancer cells, ATCC HTB-26) were plated at a density of 4,000 cells/well in a 96-well multititer plate in 200 microL of their respective growth medium supplemented 10% fetal calf serum. After 24 hours, the cells of one plate (zero-point plate) were stained with crystal violet (see below), while the medium of the other plates was supplemented with the test substances in various concentrations (0 micromol/L, as well as in the range of 0.01-10 micromol/L; the final concentration of the solvent dimethyl sulfoxide was adjusted to 0.1%) using a Tecan HP D300 Digital Dispenser. The cells were incubated for 4 days in the presence of test substances. Cell proliferation was determined by staining the cells with crystal violet: the cells were fixed by adding 20 microL/measuring point of an 11% glutaric aldehyde solution for 15 minutes at room temperature. After three washing cycles of the fixed cells with water, the plates were dried at room temperature. The cells were stained by adding 100 microL/measuring point of a 0.1% crystal violet solution (pH 3.0). After three washing cycles of the stained cells with water, the plates were dried at room temperature. The dye was dissolved by adding 100 microL/measuring point of a 10% acetic acid solution. The extinction was determined by photometry at a wavelength of 595 nm. The change of cell number, in percent, was calculated by normalization of the measured values to the extinction values of the zero-point plate (=0%) and the extinction of the untreated (0 μM) cells (=100%). The IC50 values (inhibitory concentration at 50% of maximal effect) were determined by means of a 4 parameter fit.

[2] = target: T2, CDK12 (nuclear staining in CAL-120 cells) (Homo sapiens, UniProt Q9NYV4); assay: CDK12 nuclear protein level: immunofluorescence/high content analysis (CAL-120); assay type: cell-based; conditions: for DC50: CAL-120 cells, 24 h, immunofluorescence, 50% reduction of nuclear CDK12 staining intensity, median, read-out: CDK12 degradation IF, DC50- [mol/l] (median); for (IC50 CDK12 high ATP) to (Degradation DC50 CDK12) ratio: ratio of IC50 CDK12 high ATP kinase assay to DC50 CDK12 degradation (IF, CAL-120)
T2 construct: endogenous in cells; host or cells: CAL-120 human breast cancer cells (DSMZ ACC 459)
Procedure: In the context of the present invention, the term “DC50 CDK12” refers to the DC50 values obtained according to the assay described in this section (7) herein below, i.e. the DC50 values for the degradation of CDK12.
Plates are then incubated for 24 h at 37° C. in an humidified incubator and fixed with 4% PFA for 10 min. […] Nuclear and cytoplasmic intensity as well as the nuclear/cytoplasmic intensity ratio is determined by automated image analysis using custom generated scripts (MetaXpress). Data is then transferred to Genedata Screener software, normalized to DMSO and control and DC50 values (degrading concentration to achieve 50% reduction of nuclear CDK12 staining intensity relative to controls) are reported.

T2 sequence (Q9NYV4 whole entry): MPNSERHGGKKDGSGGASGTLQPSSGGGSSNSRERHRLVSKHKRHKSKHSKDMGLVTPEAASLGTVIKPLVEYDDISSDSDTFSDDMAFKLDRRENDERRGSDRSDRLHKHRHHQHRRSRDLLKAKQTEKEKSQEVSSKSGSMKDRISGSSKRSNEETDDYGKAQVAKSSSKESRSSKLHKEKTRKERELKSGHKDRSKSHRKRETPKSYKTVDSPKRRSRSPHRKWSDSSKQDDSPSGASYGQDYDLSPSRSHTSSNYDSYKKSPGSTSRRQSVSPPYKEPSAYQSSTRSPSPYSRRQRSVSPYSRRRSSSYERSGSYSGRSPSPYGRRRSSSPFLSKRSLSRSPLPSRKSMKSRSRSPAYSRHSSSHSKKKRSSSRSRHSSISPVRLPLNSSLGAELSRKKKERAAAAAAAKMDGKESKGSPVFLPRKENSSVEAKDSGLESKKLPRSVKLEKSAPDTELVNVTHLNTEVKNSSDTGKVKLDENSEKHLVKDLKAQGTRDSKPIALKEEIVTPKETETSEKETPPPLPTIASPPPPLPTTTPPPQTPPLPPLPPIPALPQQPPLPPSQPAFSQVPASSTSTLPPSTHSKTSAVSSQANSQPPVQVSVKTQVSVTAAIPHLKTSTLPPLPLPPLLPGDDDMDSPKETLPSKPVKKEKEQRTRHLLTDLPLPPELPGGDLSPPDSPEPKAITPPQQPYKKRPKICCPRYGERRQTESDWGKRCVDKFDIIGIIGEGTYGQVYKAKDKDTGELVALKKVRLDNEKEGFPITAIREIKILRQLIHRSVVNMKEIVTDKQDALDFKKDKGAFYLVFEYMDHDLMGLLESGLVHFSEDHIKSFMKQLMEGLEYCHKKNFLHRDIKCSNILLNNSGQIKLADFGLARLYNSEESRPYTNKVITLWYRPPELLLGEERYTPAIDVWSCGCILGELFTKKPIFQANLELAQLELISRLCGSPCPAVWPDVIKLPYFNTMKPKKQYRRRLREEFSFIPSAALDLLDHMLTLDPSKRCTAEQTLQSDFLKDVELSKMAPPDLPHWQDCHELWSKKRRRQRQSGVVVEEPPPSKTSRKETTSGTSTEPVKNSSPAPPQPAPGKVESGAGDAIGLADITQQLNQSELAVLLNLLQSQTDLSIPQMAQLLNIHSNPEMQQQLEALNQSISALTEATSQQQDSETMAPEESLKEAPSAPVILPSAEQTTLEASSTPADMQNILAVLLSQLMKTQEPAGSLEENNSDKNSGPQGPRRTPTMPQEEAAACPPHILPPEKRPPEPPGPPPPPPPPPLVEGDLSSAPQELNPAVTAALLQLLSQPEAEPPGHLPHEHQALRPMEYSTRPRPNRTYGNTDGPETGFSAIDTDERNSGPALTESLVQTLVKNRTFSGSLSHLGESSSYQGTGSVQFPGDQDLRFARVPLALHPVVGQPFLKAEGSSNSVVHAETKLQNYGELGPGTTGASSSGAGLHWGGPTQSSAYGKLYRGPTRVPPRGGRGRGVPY
T2 sequence (O75909 whole entry partner): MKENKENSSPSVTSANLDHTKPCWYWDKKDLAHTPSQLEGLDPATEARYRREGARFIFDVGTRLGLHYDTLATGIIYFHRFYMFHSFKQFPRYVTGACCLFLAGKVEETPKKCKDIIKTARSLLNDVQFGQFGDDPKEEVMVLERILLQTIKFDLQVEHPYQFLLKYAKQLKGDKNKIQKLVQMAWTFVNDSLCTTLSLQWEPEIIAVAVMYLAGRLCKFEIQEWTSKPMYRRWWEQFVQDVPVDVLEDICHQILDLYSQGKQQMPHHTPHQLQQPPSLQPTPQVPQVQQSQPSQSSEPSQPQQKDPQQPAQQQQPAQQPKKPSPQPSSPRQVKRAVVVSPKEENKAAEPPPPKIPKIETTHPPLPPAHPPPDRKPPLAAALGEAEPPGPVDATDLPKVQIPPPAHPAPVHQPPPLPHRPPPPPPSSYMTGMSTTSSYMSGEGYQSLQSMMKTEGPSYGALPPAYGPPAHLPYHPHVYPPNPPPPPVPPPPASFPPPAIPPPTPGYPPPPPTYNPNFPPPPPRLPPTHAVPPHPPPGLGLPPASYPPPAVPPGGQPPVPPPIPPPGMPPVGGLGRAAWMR
T1 sequence (P50750 whole entry): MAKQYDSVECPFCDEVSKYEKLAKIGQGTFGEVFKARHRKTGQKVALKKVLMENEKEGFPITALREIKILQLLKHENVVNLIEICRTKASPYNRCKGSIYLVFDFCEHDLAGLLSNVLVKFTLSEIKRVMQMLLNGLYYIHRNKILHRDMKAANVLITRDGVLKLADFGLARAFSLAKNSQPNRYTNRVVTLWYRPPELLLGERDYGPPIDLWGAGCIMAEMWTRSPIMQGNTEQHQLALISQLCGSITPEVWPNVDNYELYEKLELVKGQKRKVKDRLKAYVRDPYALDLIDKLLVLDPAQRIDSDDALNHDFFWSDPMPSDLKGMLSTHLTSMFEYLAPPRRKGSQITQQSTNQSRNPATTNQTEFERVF
T1 sequence (O60563 whole entry partner): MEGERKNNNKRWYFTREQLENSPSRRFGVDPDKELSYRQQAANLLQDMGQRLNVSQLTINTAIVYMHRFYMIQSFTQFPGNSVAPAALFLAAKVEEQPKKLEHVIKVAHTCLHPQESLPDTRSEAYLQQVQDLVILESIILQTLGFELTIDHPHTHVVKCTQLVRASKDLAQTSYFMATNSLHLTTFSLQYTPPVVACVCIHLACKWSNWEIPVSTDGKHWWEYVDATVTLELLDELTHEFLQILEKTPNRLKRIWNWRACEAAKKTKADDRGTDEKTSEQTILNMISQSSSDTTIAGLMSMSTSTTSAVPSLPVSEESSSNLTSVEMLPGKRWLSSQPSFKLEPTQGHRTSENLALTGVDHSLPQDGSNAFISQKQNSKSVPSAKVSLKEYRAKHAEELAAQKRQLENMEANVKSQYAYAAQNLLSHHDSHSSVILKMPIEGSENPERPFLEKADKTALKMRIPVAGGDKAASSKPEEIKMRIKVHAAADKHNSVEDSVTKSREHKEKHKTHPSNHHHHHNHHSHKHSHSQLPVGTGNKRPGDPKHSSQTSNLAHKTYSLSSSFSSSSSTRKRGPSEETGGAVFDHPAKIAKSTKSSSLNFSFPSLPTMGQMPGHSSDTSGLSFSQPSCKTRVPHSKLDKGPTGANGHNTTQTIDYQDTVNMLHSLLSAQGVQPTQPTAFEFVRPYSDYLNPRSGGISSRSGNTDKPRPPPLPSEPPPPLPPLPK

Row | IC50 (CDK9/CycT1) | IC50 [1] | DC50 [2] | (IC50 CDK12 high ATP) to (Degradation DC50 CDK12) ratio [2] | Compound
1 | > 20000 nM | 5.45 nM | 1.06 nM | 8849 | CC1CN(C)CCN1c1nc(NCc2nc3ccccc3[nH]2)n2ncc(Br)c2n1 (stereo not shown) [Example 156, N-(1H-benzimidazol-2-ylmethyl)-8-bromo-2-(2,4-dimethylpiperazin-1-yl)pyrazolo[1,5-a][1,3,5]triazin-4-amine]
2 | > 20000 nM | 3.3 nM | 0.856 nM | 11233 | COc1ccc2[nH]c(CNc3nc(N4CCN(C)CC4)nc4c(Br)cnn34)nc2c1 [Example 161, 8-bromo-N-[(5-methoxy-1H-benzimidazol-2-yl)methyl]-2-(4-methylpiperazin-1-yl)pyrazolo[1,5-a][1,3,5]triazin-4-amine]
3 | > 20000 nM | 1.17 nM | 0.536 nM | 8313 | Cc1ccc2[nH]c(CNc3nc(N4CCN(C)CC4)nc4c(Br)cnn34)nc2c1 [Example 158, 8-bromo-N-[(5-methyl-1H-benzimidazol-2-yl)methyl]-2-(4-methylpiperazin-1-yl)pyrazolo[1,5-a][1,3,5]triazin-4-amine]
4 | > 20000 nM | 4.16 nM | 0.405 nM | 25224 | CN1CCN(c2nc(NCc3nc4c(F)cccc4[nH]3)n3ncc(C4CC4)c3n2)CC1 [Example 165, 8-cyclopropyl-N-[(4-fluoro-1H-benzimidazol-2-yl)methyl]-2-(4-methylpiperazin-1-yl)pyrazolo[1,5-a][1,3,5]triazin-4-amine]
5 | 1990 nM | 3.86 nM | 12.7 nM | 236 | Fc1cccc(-c2nnc(CNc3nc(N4CCNCC4)nc4c(Br)cnn34)[nH]2)c1 [Example 152, 8-bromo-N-{[5-(3-fluorophenyl)-4H-1,2,4-triazol-3-yl]methyl}-2-(piperazin-1-yl)pyrazolo[1,5-a][1,3,5]triazin-4-amine]

More lines, now with the values behind:

Row | Compound | IC50 (CDK9/CycT1) | IC50 [1] | DC50 [2] | (IC50 CDK12 high ATP) to (Degradation DC50 CDK12) ratio [2]
6 | Cc1cccc2[nH]c(CNc3nc(N4CCOCC4)nc4c(Br)cnn34)nc12 [Example 150, 8-bromo-N-[(4-methyl-1H-benzimidazol-2-yl)methyl]-2-(morpholin-4-yl)pyrazolo[1,5-a][1,3,5]triazin-4-amine] | > 20000 nM | 18.3 nM | 1.31 nM | 2033
7 | CN1CCN(c2nc(NCc3nnc(-c4cccc(F)c4)[nH]3)n3ncc(Br)c3n2)CC1 [Example 136, 8-bromo-N-{[5-(3-fluorophenyl)-4H-1,2,4-triazol-3-yl]methyl}-2-(4-methylpiperazin-1-yl)pyrazolo[1,5-a][1,3,5]triazin-4-amine] | 1420 nM | 17.1 nM | 3.61 nM | 1140
8 | C[C@@H]1CN(c2nc(NCc3nc4c(F)cccc4[nH]3)n3ncc(Br)c3n2)C[C@H](C)O1 [Example 109, 8-bromo-2-[(2R,6S)-2,6-dimethylmorpholin-4-yl]-N-[(4-fluoro-1H-benzimidazol-2-yl)methyl]pyrazolo[1,5-a][1,3,5]triazin-4-amine] | 1790 nM | 4.9 nM | 1.09 nM | 162
9 | C[C@@H]1CN(c2nc(NCc3nc4cc(F)ccc4[nH]3)n3ncc(Br)c3n2)C[C@H](C)O1 [Example 110, 8-bromo-2-[(2R,6S)-2,6-dimethylmorpholin-4-yl]-N-[(5-fluoro-1H-benzimidazol-2-yl)methyl]pyrazolo[1,5-a][1,3,5]triazin-4-amine] | 5470 nM | 5.03 nM | 1.03 nM | 394
10 | FC(F)(F)CN1CCN(c2nc(NCc3nc4ccccc4[nH]3)n3ncc(Br)c3n2)CC1 [Example 139, N-[(1H-benzimidazol-2-yl)methyl]-8-bromo-2-[4-(2,2,2-trifluoroethyl)piperazin-1-yl]pyrazolo[1,5-a][1,3,5]triazin-4-amine] | > 20000 nM | 446 nM | 110 nM | 140
11 | Brc1cnn2c(NCc3nc4ccccc4[nH]3)nc(N3CCN4CCC[C@@H]4C3)nc12 [Example 149, N-[(1H-benzimidazol-2-yl)methyl]-8-bromo-2-[(8aR)-hexahydropyrrolo[1,2-a]pyrazin-2 (1 H)-yl]pyrazolo[1,5-a][1,3,5]triazin-4-amine] | > 20000 nM | 164 nM | 12.6 nM | 495
12 | C[C@H]1CCCCN1c1nc(NCc2nc3ccccc3[nH]2)n2ncc(Br)c2n1 [Example 141, N-[(1H-benzimidazol-2-yl)methyl]-8-bromo-2-[(2S)-2-methylpiperidin-1-yl]pyrazolo[1,5-a][1,3,5]triazin-4-amine] | 12900 nM | 24.5 nM | 6.11 nM | 214
13 | Brc1cnn2c(NCc3nc4ccccc4[nH]3)nc(N3CCNCC3)nc12 [Example 128, N-[(1H-benzimidazol-2-yl)methyl]-8-bromo-2-(piperazin-1-yl)pyrazolo[1,5-a][1,3,5]triazin-4-amine] | > 20000 nM | 12.7 nM | 1.37 nM | 7939
14 | Brc1cnn2c(NCc3nnc(-c4ccccc4)[nH]3)nc(N3C[C@H]4C[C@@H]3CO4)nc12 [Example 118, 8-bromo-2-[(1R,4R)-2-oxa-5-azabicyclo[2.2.1]heptan-5-yl]-N-[(5-phenyl-4H-1,2,4-triazol-3-yl)methyl]pyrazolo[1,5-a][1,3,5]triazin-4-amine] | 3630 nM | 29.7 nM | 4.85 nM | 1176
15 | Clc1ccccc1-c1cnc(CNc2nc(N3CCOCC3)nc3c(Br)cnn23)[nH]1 [Example 96, 8-bromo-N-{[5-(2-chlorophenyl)-1H-imidazol-2-yl]methyl}-2-(morpholin-4-yl)pyrazolo[1,5-a][1,3,5]triazin-4-amine] | 9300 nM | 30.1 nM | 5.73 nM | 812
16 | CN1CCN(c2nc(NCc3nc4cc(F)ccc4[nH]3)n3ncc(Br)c3n2)CC1 [Example 134, 8-bromo-N-[(5-fluoro-1H-benzimidazol-2-yl)methyl]-2-(4-methylpiperazin-1-yl)pyrazolo[1,5-a][1,3,5]triazin-4-amine] | > 20000 nM | 11.6 nM | 0.991 nM | >17850
